Measured values: patent publication US11412737B2, “Mixtures of beflubutamid or optically enriched forms thereof with a second herbicide” (FMC Corporation, priority 2016, dated 2022)

What was measured:
[1] = tested on: Canola (CN); assay: post-emergence test, crop injury; format: in vivo; settings: post-emergent, 28 DAT (Table 12 test)
Method: (§1) Test compositions containing the test compounds were diluted with water to provide the appropriate test rate concentrations.
(§2) For post-emergence testing, seeds of each species for each rate of application of each herbicide solution were planted in 7.5 cm×7.5 cm plastic pots filled with potting soil. The seeds were germinated and the resulting plants were allowed to grow in a greenhouse until they reached a growth stage, such as height, suitable for testing. Treatments were applied using compressed air in a track spray chamber at 30 gallons/acre (280 L/ha) using a TeeJet 8001E nozzle at 40 psi (2.76 bars). Pots of post-emergent treated plants were returned to the greenhouse and not watered for 24 hours after treatment. Thereafter they were regularly watered and fertilized for the duration of the test.
The control of weeds was evaluated in each experimental test at 21 for wheat and 28 days after treatment (DAT) for all species. Data were analyzed using Minitab software at 95% confidence interval. The results, shown as an average of the replications, were compared with results observed in untreated control flats in the same tests. Percent control was determined by a method similar to the 0 to 100 rating system disclosed in “Research Methods in Weed Science,” 2nd ed., B. Truelove, Ed.; Southern Weed Science Society; Auburn University, Auburn, Ala., 1977. […]

[2] = tested on: Common chickweed (STEME); assay: post-emergence test, weed control; format: in vivo, Stellaria media; settings: post-emergent, 28 DAT
Method: as §1
as §2, with “Treatments were applied using compressed air in a track spray chamber at 30 gallons/acre (280 L/ha) using a TeeJet 8001E nozzle at 40 psi (2.76 bars).” left out
(§3) The control of weeds was evaluated in each experimental test at 21 for wheat and 28 days after treatment (DAT) for all species. […] The rating system is as follows in Table 1.

[3] = tested on: Palmer amaranth (AMAPA); assay: post-emergence test, weed control; format: in vivo, Amaranthus palmeri; settings: post-emergent, 28 DAT, COC 1%, rate g ai/ha by row: r5 94, r6 125, r7 250, r8 1.25, r9 2.5, r10 5, r11 94+1.25, r13 125+1.25, r15 94+2.5, r17 125+2.5, r19 94+5, r21 125+5
Method: as §1
as §2, with “Treatments were applied using compressed air in a track spray chamber at 30 gallons/acre (280 L/ha) using a TeeJet 8001E nozzle at 40 psi (2.76 bars).” left out
as §3

[4] = tested on: Chinese sprangletop (LEFCH); assay: post-emergence test, weed control; format: in vivo; settings: post-emergent, 28 DAT, height ≤0.5 cm, rate g ai/ha by row: r7 94, r8 125, r9 188, r10 125, r11 250, r12 94+125, r13 125+125, r14 188+125, r15 94+250, r16 125+250, r17 188+250
[5] = tested on: Marestail (horsetail) (ERICA); assay: post-emergence test, weed control; format: in vivo; settings: post-emergent, 28 DAT, height 1 cm (3-5 rosette); rate g ai/ha by row: r25 94, r26 125, r27 188, r28 125, r29 250, r30 94+125, r31 125+125, r32 188+125, r33 94+250, r34 125+250, r35 188+250

Row | SMILES | crop injury on canola [1] | percentage of weed control, Common chickweed STEME ([2]; COC 1%, rate g ai/ha by row: r5 94, r6 125, r7 250, r8 1.25, r9 2.5, r10 5, r11 94+1.25, r13 125+1.25, r15 94+2.5, r17 125+2.5, r19 94+5, r21 125+5) [%] | control of common chickweed ([2]; BFL at 187.5 g, PYX at 45 g, combination of both) [%] | percentage of weed control, Palmer amaranth AMAPA ([3]; BFL at 94 g ai/ha) [%] | percentage of weed control, Palmer amaranth AMAPA ([3]; BFL at 125 g ai/ha) [%] | percentage of weed control, Palmer amaranth AMAPA ([3]; BFL at 250 g ai/ha) [%] | percentage of weed control, LEFCH ([4]; 125 g ai/ha) [%] | percentage of weed control, LEFCH ([4]; 250 g ai/ha) [%] | percentage of weed control, ERICA [5] [%]
1 | CCC(Oc1ccc(F)c(C(F)(F)F)c1)C(=O)NCc1ccccc1 (racemic) [BFL, 2-[4-fluoro-3-(trifluoromethyl)phenoxy]-N-(phenylmethyl)butanamide] | significant crop injury | 5 | 16 | 46 | 48 | 53 | – | – | –
2 | CC1(C)CON(Cc2ccc(Cl)cc2Cl)C1=O [DCI, 2-(2,4-dichlorophenyl)methyl-4,4-dimethyl-3-isoxazolidinone] | – | – | – | – | – | – | 89 | 79 | 0
